Columns and labels:
[1] = test system: SJ-GBM2 cells, CHLA-200 cells and astrocytes; experiment: Cellular entry by confocal microscopy; format: cell-based, human; conditions: 20 μM Alexa Fluor labeled, 2 hr, 37° C.; pGBM cells vs normal astrocytes
Procedure: p28 or AmiR20-p28 were dissolved in PBS mixed with Alexa Fluor 568 dye (Invitrogen) at a 1:2 peptide/dye ratio 37. Sodium bicarbonate (pH 8.5) was added and incubated at 4° C. with continuous stirring. Alexa Fluor 568 labeled p28 and AmiR20-p28 were dialyzed against cold-PBS using Slide-A-Lyzer Dialysis Cassettes (Pierce Biotechnology). Similarly, p28 was labeled with ICG as described previously.
SJ-GBM2 cells, CHLA-200 cells and astrocytes (2×10^4 cells/well) were cultured on glass slides placed in 24-well plates. After overnight culture, the cells were washed with PBS and incubated with 20 μM Alexa Fluor 568-labeled p28 peptide in medium (5% FBS and without phenol red) for 2 hr at 37° C. Cells were fixed with 2% formalin for 10 min. After washing, slides were prepared and mounted with Vectashield with DAPI (Vector Laboratories, Catalog #94010). Slides were examined by an LSM 710 confocal laser scanning microscope (Zeiss). Images were processed using ZEN software (ZEISS ZEN Lite). As for a GSC marker, the slides were first incubated with Alexa Fluor 568-labeled AmiR20-p28 for 2 hr at 37° C. Cells were fixed with 2% formalin for 10 min. After washing, slides were incubated with blocking buffer for 1 hr at room temperature, followed by consecutive staining with anti-CD133 antibody (1:500, R&D Systems FAB11331G). Slides were washed and mounted with Vectashield containing DAPI. […]

[2] = parameters: species or system mice; conditions: mouse, in vivo
Procedure: Collected samples were fixed with buffered 3.7% formalin (Anatech) for 24 hr. Formalin was replaced with 70% ethanol following fixation. Samples were paraffin-embedded, and blocks were cut into 4 μm-thick sections and mounted onto slides which were processed for H&E staining. H&E-stained slides were analyzed by a pathologist blinded to the experimental groups.
Alanine transaminase (ALT) activity was measured using ALT assay kits (Sigma, #MAK052) and serum aspartate transaminase (AST) activities was measured using AST assay kits (Sigma, #MAK055) following the manufacturer's instructions. Briefly, serum samples at different dilutions, were reacted with ALT or AST reaction mixture and plated on 96-well plate, followed by reading at A450. The final calculations were done by comparing the sample readings with that of standard curve (pyruvate standards for ALT and glutamate standards for AST).

CHLA-200 cells = format: cell-based, human; conditions: 24 hr; read-out: IC50 (cell viability)
Procedure: (§1) Cell viability was evaluated by a CCK-8 assay (Dojindo, Japan). Cells were seeded at a density of 4,000 cells per well in 100 μl of growth medium in 96-well plates and grown overnight. Then, the cells were exposed to antisense miR-20a alone, p28 alone or negative control or AmiR20-p28 over a range of concentrations and incubated for 24 hr. According to the manufacturer's instructions, 10 μl of CCK-8 solution was added to each well, followed by incubation for 1 hr at 37° C. The absorbance at 450 nm was determined by a multiplate reader.
Cell viability (%)=Abs(sample)−Abs(blank)/Abs(no treatment)−Abs(blank)×100

SJ-GBM2 cells = experiment: Annexin V/PI flow cytometric apoptosis assay, SJ-GBM2; format: cell-based, human; conditions: 10 nM, 24 h
Procedure: Cells were seeded into 10-cm dishes and cultured overnight. Then, the cells were treated with 10 nM antisense miR-20a alone, p28 alone or AmiR20-p28 for 24 hr. Cells were washed with 1×PBS, detached with TrypleE (Invitrogen). and collected by centrifugation. Cells were washed and resuspended with 1× Annexin binding buffer (Life Technologies, catalog #V13242), and the cell density was maintained at 10^6 cells/ml. Subsequently, 5 μl of Annexin-V was added to 100 μl of the cell suspension, and the mixture was incubated for 15 min at room temperature. The cells were washed and incubated with 5 μl of PI for an additional 15 min on ice, washed and resuspended in 200 μl of buffer. Cells without treatment were used as controls. After washing, cells were subjected to flow cytometry (Gallios flow cytometer) and analyzed with Kaluza software to give the proportions of dead (top left quadrant), late apoptotic (top right quadrant), early apoptotic (bottom right quadrant) and viable (bottom left quadrant) cells.

[3] = test system: MDA-MB231, SKOV3, Mia-Paca2, Colon 205 and DU145 cells; experiment: CCK-8 cell viability assay, other solid tumor cells; format: cell-based, human; conditions: 10 nM
Procedure: as §1

[4] = test system: genes associated with the EGFR, p53 and TGF pathways; experiment: qPCR of downstream targets of miR-20a; format: cell-based, human; conditions: 10 nM, 24 hr
[5] = test system: SJ-GBM2, CHLA-200, LN-229 and astrocytes; experiment: Intracellular entry by qPCR detection of antisense miR-20a; format: cell-based, human; conditions: 1, 10, 100 and 1,000 nM, 24 hr
Source text: Micro RNA enriched fraction was extracted using the miRNeasy Mini Kit (Qiagen, Catalog #217004) following the manufacturer's instructions. Stem loop real-time qPCR was used to analyze miRNA expression. We designed miR-20a stem loop RT primers and amplification primers according to a previously described method 79. cDNA was synthesized from extracted RNA using unique stem loop RT primers. The sequence of the stem loop primer for miR-20a was 5′-[…]-3′ (SEQ ID NO:7). Reverse transcriptase reactions contained the following reagents: 10 ng of RNA sample, 60 nM stem-loop RT primer, 1×RT buffer, 0.25 mM dNTP, and 4 U/μl reverse transcriptase. Reactions were performed by incubation at 16° C. for 30 min, 42° C. for 30 min and 85° C. for 5 min. Real-time PCR (7300 Real time PCR Systems, Applied Biosystems, CA) was performed using the specific forward primer for miR-20a (5′-[…]-3′ (SEQ ID NO:8)) and a universal reverse primer (5′-GTGCA GGGTC CGAGGT-3′ (SEQ ID NO:9)). The 20-μl PCR mixture included 1×SYBR Premix (Invitrogen), 2 μl of RT products and each forward and reverse primer at 10 nM. Reactions were performed by incubation in a 96-well plate at 95° C. for 30 sec, followed by 35 cycles of 95° C. for 30 sec and 60° C. for 30 sec. U6 was used as an internal control to normalize the level of target miRNAs. […]

SJ-GBM2 spheroids = experiment: SJ-GBM2 tumor spheroids: uptake and structure; format: cell-based, human
Procedure: SJ-GBM2 cells, CHLA-200 cells and astrocytes (2×10^4 cells/well) were cultured on glass slides placed in 24-well plates. After overnight culture, the cells were washed with PBS and incubated with 20 μM Alexa Fluor 568-labeled p28 peptide in medium (5% FBS and without phenol red) for 2 hr at 37° C. Cells were fixed with 2% formalin for 10 min. After washing, slides were prepared and mounted with Vectashield with DAPI (Vector Laboratories, Catalog #94010). Slides were examined by an LSM 710 confocal laser scanning microscope (Zeiss). Images were processed using ZEN software (ZEISS ZEN Lite). As for a GSC marker, the slides were first incubated with Alexa Fluor 568-labeled AmiR20-p28 for 2 hr at 37° C. Cells were fixed with 2% formalin for 10 min. After washing, slides were incubated with blocking buffer for 1 hr at room temperature, followed by consecutive staining with anti-CD133 antibody (1:500, R&D Systems FAB11331G). Slides were washed and mounted with Vectashield containing DAPI. Slides were examined by the LSM 710 confocal laser scanning microscope.
SJ-GBM2 spheroids were formed by self-aggregation of cells in the bottoms of non-adherent round bottom 96-well plates (Thermo Scientific, #174925 96U). Suspensions of 10,000 cells in 100 μl volumes of media were pipetted into individual wells and allowed to form cell-cell connections over the course of 3 days.

AmiR20-p28: BBB-permeable tumor-navigating CPP p28 (Cys-p28) covalently linked to 2′ O-methyl antisense miR-20a (5′-maleimide)
cellular entry (confocal images) [1]: preferential entry
histology of heart, lung, liver, spleen, and kidney [2]: no AmiR20-p28-related differences in histology
adverse effects (hepatotoxicity assay, hemolysis assay, histological examination) ([2]; iv, 1 mg/kg): without apparent adverse effects
IC50 (CHLA-200 cells): 11 nM
increase in apoptotic cells by (SJ-GBM2 cells): 16%
effect on the viability [3]: little effect on the viability
EGFR expression levels ([4]; LN-229 cells): decreased EGFR expression levels
expression of p53, p21, Bax and E2F ([4]; LN-229 cells): significantly increased
expression levels of EGFR, Ras, MEK1, ERK1, c-Fos, c-Jun, β-catenin, TCF-1 and Lef1 genes ([4]; SJ-GBM2 and CHLA-200 cells): significantly decreased
expressions of p53, p21, Bax, and E2F ([4]; SJ-GBM2 and CHLA-200 cells): robust increase
gene expression levels ([4]; normal human astrocytes): no significant effect on gene expression levels
penetration into pGBM and aGBM cells (qPCR of antisense miR-20a) [5]: preferential and dose-dependent penetration
structure of the SJ-GBM2 spheroids (SJ-GBM2 spheroids; 10 nM, 24 and 48 h): started to disintegrate at 24 h
uptake in tumor spheroids (SJ-GBM2 spheroids; 20 μM Alexa Fluor-labeled, 2 hr, 37° C.): penetrated the tumor spheroids
